Data on 20 compounds can be found in patent US10442804B2, “Compounds for the treatment of hepatitis B virus infection” (Gilead Sciences, Inc., priority 2017, dated 2019).

Where two headings read alike, the source gives them in different places.

The nature of one data set: MT-4 cytotoxicity assay. The class given is cell-based, human. The settings on record: human. The procedure:
Biological Example 2: MT-4 Cytotoxicity Assay
The MT-4 cell line (HTLV-1 transformed, human T lymphoblastoid cells) was obtained from the NIH AIDS Reagent program (Bethesda, Md.). MT-4 cells were maintained in RPMI-1640 media (Thermo Fisher Scientific, Waltham, Mass.) supplemented with 10% fetal bovine serum, 100 Units/mL penicillin, and 100 μg/mL streptomycin. For the MT-4 cytotoxicity assay, 0.4 μL of serially diluted solutions of certain compounds disclosed herein were added to 40 μL of cell maintenance media in 384-well black, solid bottom plate using a Biomek FX workstation (Beckman Coulter, Brea, Calif.). Two thousand cells in 35 μL were added to each well using a Biotek uFlow Workstation (Biotek, Winooski, Vt.). Each assay plate contained 10 μM puromycin (final concentration) and 0.5% DMSO in RPMI-1640 media as positive and negative controls, respectively. Assay plates were incubated for five days at 37° C. in an incubator set at 5% CO2 and 90% humidity. After five days, 22 μL of Cell Titer Glo reagent (Promega, Madison, Wis.) was added to the assay plates with a Biotek uFlow Workstation. Plates were subsequently placed on an Envision Plate Reader (Perkin Elmer, Waltham, Mass.) for five minutes before the luminescence signal was read. CC50 values were defined as the compound concentration that caused a 50% decrease in luminescence signal, and were calculated by non-linear regression using Pipeline Pilot software by applying a four parameter fit equation (Accelrys, San Diego, Calif.) and are reported in the following Table 1.

Data set [1] relates to HBV-infected NTCP-HepG2 cells, secreted HBsAg. As to the kind of experiment: microbe, parasite or virus in culture. The class given is cell-based, hepatitis B virus (genotype D, AD38-derived). The settings on record: Hepatitis B virus, 120 h, secreted HBsAg in supernatant after 5 days; geometric mean of minimum four determinations; read-out: NTCP HBsAg EC50. On the procedure: NTCP-HepG2 Antiviral Assay for Secreted HBsAg
HepG2 cells stably expressing sodium-taurocholate cotransporting polypeptide (NTCP-HepG2) were grown in Dulbecco's Modified Eagle Medium (DMEM) without sodium pyruvate (Thermo Fisher Scientific, Waltham, Mass.) supplemented with 10% fetal bovine serum, 2 mM L-glutamine, 1% penicillin/streptomycin, and 0.25 mg/mL G-418. NTCP-HepG2 cells were infected with 4000 genome equivalent per cell of genotype D (AD38-derived) HBV in DMEM without sodium pyruvate (Thermo Fisher Scientific, Waltham, Mass.) supplemented with 2% fetal bovine serum, 2 mM L-glutamine, 1% penicillin/streptomycin, 2.5% DMSO, and 4% PEG 8000 (Promega, Madison, Wis.). After 24-hour incubation, cells were washed three times with OptiMEM (Thermo Fisher Scientific, Waltham, Mass.) and fed with fresh DMEM without sodium pyruvate (Thermo Fisher Scientific, Waltham, Mass.) supplemented with 2% fetal bovine serum, 2 mM L-glutamine, 1% penicillin/streptomycin, and 2.5% DMSO. At 4 days after infection, infected NTCP-HepG2 cells were seeded on 384-well plates pre-coated with collagen at a density of 20000 cells per well containing serially diluted compounds of the present disclosure or DMSO (0.5%) in a final volume of 80 μl of DMEM without sodium pyruvate (Thermo Fisher Scientific, Waltham, Mass.) supplemented with 2% fetal bovine serum, 2 mM L-glutamine, 1% penicillin/streptomycin, and 1% DMSO. After an incubation time of 5 days, cell culture supernatant was collected and measured for HBsAg.
Secreted HBsAg in the supernatant were measured using a multiplex chemiluminescent MSD assay (Meso Scale Discovery, Rockville, Md.) using capture and detection antibody pairs specific for HBsAg. The EC50 values were calculated from the fit of the dose-response curves to a four-parameter equation. All EC50 values represent geometric mean values of a minimum of four determinations.

Where [2] appears, read: five days, Cell Titer Glo luminescence, read-out: MT-4 CC50.

With `COCCCOc1cc2c(cc1Cl)-c1cc(=O)c(C(=O)O)cn1[C@H]1[C@H]2CCC1(C)C` (single isomer, unassigned) [Example 35], the CC50 at 5 days in the data set “MT-4 cytotoxicity assay” (setting [2]) was greater than 10000 nM. Moreover, in data set [1], the EC50 stood at 49 nM.

As for `COCCCOc1cc2c(cc1Cl)-c1cc(=O)c(C(=O)O)cn1N1[C@@H]2CCC1(COC)COC` [Example 80, (R)-11-chloro-3,3-bis(methoxymethyl)-12-(3-methoxypropoxy)-8-oxo-2,3,8,13b-tetrahydro-1H-pyrido[2,1-a]pyrrolo[1,2-c]phthalazine-7-carboxylic acid], in the data set “MT-4 cytotoxicity assay” (setting [2]), the CC50 at 5 days is greater than 10000 nM. Moreover, the EC50 in data set [1] was 45 nM.

Turning to `COCCCOc1cc2c(cc1Cl)-c1cc(=O)c(C(=O)O)cn1N1[C@H](C)CC[C@H]21` (single isomer, unassigned) [Example 7], the CC50 at 5 days in the data set “MT-4 cytotoxicity assay” (setting [2]) was greater than 10000 nM. Moreover, the EC50 in data set [1] stood at 32 nM.

For `COCCCOc1cc2c(cc1Cl)-c1cc(=O)c(C(=O)O)cn1N1[C@@H]2CCC12COC(C)(C)OC2` [Example 81, (R)-11-chloro-12-(3-methoxypropoxy)-2′,2′-dimethyl-8-oxo-1,2,8,13b-tetrahydrospiro[pyrido[2,1-a]pyrrolo[1,2-c]phthalazine-3,5′-[1,3]dioxane]-7-carboxylic acid], the CC50 at 5 days in the data set “MT-4 cytotoxicity assay” (setting [2]) is greater than 10000 nM. The half-maximal effective concentration (EC50) in data set [1] is 386 nM.

For `COCCCOc1cc2c(cc1Cl)-c1cc(=O)c(C(=O)O)cn1N1CCC[C@@H]21` (single isomer, unassigned) [Example 3], the CC50 at 5 days in the data set “MT-4 cytotoxicity assay” (setting [2]) was 9100 nM. The EC50 in data set [1] is greater than 1000 nM.

For `COCCCOc1cc2c(cc1COC)-c1cc(=O)c(C(=O)O)cn1N1[C@@H]2COCC1(C)C` [Example 102, (S)-12-(methoxymethyl)-13-(3-methoxypropoxy)-4,4-dimethyl-9-oxo-3,4,9,14b-tetrahydro-1H-[1,4]oxazino[3,4-a]pyrido[1,2-c]phthalazine-8-carboxylic acid], the CC50 at 5 days in “MT-4 cytotoxicity assay” (setting [2]) was greater than 10000 nM. Besides, the EC50 in data set [1] came out at 11.5 nM.

`COCCCOc1cc2c(cc1Cl)-c1cc(=O)c(C(=O)O)cn1N1[C@@H]2CCC12COC2` [Example 82, (R)-11′-chloro-12′-(3-methoxypropoxy)-8′-oxo-1′,2′,8′,13b′-tetrahydrospiro[oxetane-3,3′-pyrido[2,1-a]pyrrolo[1,2-c]phthalazine]-7′-carboxylic acid] showed a CC50 at 5 days in the data set “MT-4 cytotoxicity assay” (MT-4 CC50) greater than 10000 nM. Further, the EC50 in data set [1] worked out at 72 nM.

Take `COCCCOc1cc2c(cc1Cl)-c1cc(=O)c(C(=O)O)cn1N1[C@@H]2CCCC1(C)C` (single isomer, unassigned) [Example 12]: the half-maximal cytotoxic concentration (CC50) at 5 days in the data set “MT-4 cytotoxicity assay” (setting [2]) was determined as 8800 nM. The concentration for a half-maximal effect (EC50) in data set [1] is 2.5 nM.

For the compound `COCc1cc2c(cc1C#CC(C)(C)OC)[C@H]1CCC(C)(C)N1n1cc(C(=O)O)c(=O)cc1-2` [Example 97, (R)-12-(3-methoxy-3-methylbut-1-yn-1-yl)-11-(methoxymethyl)-3,3-dimethyl-8-oxo-2,3,8,13b-tetrahydro-1H-pyrido[2,1-a]pyrrolo[1,2-c]phthalazine-7-carboxylic acid], in “MT-4 cytotoxicity assay” (setting [2]), the cytotoxic concentration (CC50) at 5 days was greater than 10000 nM. Moreover, the EC50 in data set [1] was found to be 8.6 nM.

Regarding `CC1(C)CC[C@@H]2c3cc(-c4cnn(C5COC5)c4)c(OC(F)(F)F)cc3-c3cc(=O)c(C(=O)O)cn3N21` [Example 93, (R)-3,3-dimethyl-12-(1-(oxetan-3-yl)-1H-pyrazol-4-yl)-8-oxo-11-(trifluoromethoxy)-2,3,8,13b-tetrahydro-1H-pyrido[2,1-a]pyrrolo[1,2-c]phthalazine-7-carboxylic acid], in “MT-4 cytotoxicity assay” (setting [2]), the CC50 at 5 days was greater than 10000 nM. In addition, the half-maximal effective concentration (EC50) in data set [1] was found to be 4.4 nM.

With `CC1(C)CC[C@@H]2c3cc(C#CC(C)(C)S(C)(=O)=O)c(OC(F)(F)F)cc3-c3cc(=O)c(C(=O)O)cn3N21` [Example 89, (R)-3,3-dimethyl-12-(3-methyl-3-(methylsulfonyl)but-1-yn-1-yl)-8-oxo-11-(trifluoromethoxy)-2,3,8,13b-tetrahydro-1H-pyrido[2,1-a]pyrrolo[1,2-c]phthalazine-7-carboxylic acid], the CC50 at 5 days in “MT-4 cytotoxicity assay” (setting [2]) is greater than 10000 nM. In data set [1], the EC50 was determined as 13.7 nM.

On to `CC1(C)CC[C@@H]2c3cc(OCC4COC4)c(C4CC4)cc3-c3cc(=O)c(C(=O)O)cn3N21` [Example 66, (R)-11-cyclopropyl-3,3-dimethyl-12-(oxetan-3-ylmethoxy)-8-oxo-2,3,8,13b-tetrahydro-1H-pyrido[2,1-a]pyrrolo[1,2-c]phthalazine-7-carboxylic acid], for which, in the data set “MT-4 cytotoxicity assay” (setting [2]), the CC50 at 5 days is greater than 10000 nM. Besides, the EC50 in data set [1] amounted to 0.97 nM.

On to `O=C(O)c1cn2c(cc1=O)-c1cc(Cl)c(-c3cnn(C4COC4)c3)cc1[C@H]1CCC3(CC3)N12` [Example 86, (R)-11′-chloro-12′-(1-(oxetan-3-yl)-1H-pyrazol-4-yl)-8′-oxo-1′,2′,8′,13b′-tetrahydrospiro[cyclopropane-1,3′-pyrido[2,1-a]pyrrolo[1,2-c]phthalazine]-7′-carboxylic acid], for which the cytotoxic concentration (CC50) at 5 days in “MT-4 cytotoxicity assay” (MT-4 CC50) is greater than 10000 nM. Moreover, the concentration giving a half-maximal response (EC50) in data set [1] was 24.8 nM.

Regarding `COc1cc2c(cc1C#Cc1cnc3cccnn13)[C@H]1CCC(C)(C)N1n1cc(C(=O)O)c(=O)cc1-2` [Example 68, (R)-12-(imidazo[1,2-b]pyridazin-3-ylethynyl)-11-methoxy-3,3-dimethyl-8-oxo-2,3,8,13b-tetrahydro-1H-pyrido[2,1-a]pyrrolo[1,2-c]phthalazine-7-carboxylic acid], the half-maximal cytotoxic concentration (CC50) at 5 days in “MT-4 cytotoxicity assay” (setting [2]) was greater than 10000 nM. In addition, the EC50 in data set [1] is 2.9 nM.

For `COCc1cc2c(cc1C#CC(C)(C)O)[C@H]1CCC(C)(C)N1n1cc(C(=O)O)c(=O)cc1-2` [Example 70, (R)-12-(3-hydroxy-3-methylbut-1-yn-1-yl)-11-(methoxymethyl)-3,3-dimethyl-8-oxo-2,3,8,13b-tetrahydro-1H-pyrido[2,1-a]pyrrolo[1,2-c]phthalazine-7-carboxylic acid], the CC50 at 5 days in the data set “MT-4 cytotoxicity assay” (setting [2]) is greater than 10000 nM. The EC50 in data set [1] turned out to be 21.1 nM.

As for `COCCCOc1cc2c(cc1COC)-c1cc(=O)c(C(=O)O)cn1N1[C@@H]2COCC12CCC2` [Compound 114, (S)-12′-(methoxymethyl)-13′-(3-methoxypropoxy)-9′-oxo-9′,14b′-dihydro-1′H,3′H-spiro[cyclobutane-1,4′-[1,4]oxazino[3,4-a]pyrido[1,2-c]phthalazine]-8′-carboxylic acid], in “MT-4 cytotoxicity assay” (MT-4 CC50), the CC50 at 5 days is greater than 10000 nM. For the same compound, in data set [1], the EC50 was 67.6 nM.

With `COc1cc2c(cc1C#CC(C)(C)OC)[C@H]1CCC(C)(C)N1n1cc(C(=O)O)c(=O)cc1-2` [Example 43], in the data set “MT-4 cytotoxicity assay” (setting [2]), the CC50 at 5 days is greater than 10000 nM. For the same compound, the EC50 in data set [1] stood at 7.6 nM.

Consider `COCCCOc1cc2c(cc1OC(C)C)-c1cc(=O)c(C(=O)O)cn1N1[C@@H]2CCC1(C)C` [Example 22, (R)-11-isopropoxy-12-(3-methoxypropoxy)-3,3-dimethyl-8-oxo-2,3,8,13b-tetrahydro-1H-pyrido[2,1-a]pyrrolo[1,2-c]phthalazine-7-carboxylic acid], for which, in “MT-4 cytotoxicity assay” (setting [2]), the 50% cytotoxic concentration (CC50) at 5 days was greater than 10000 nM. For the same compound, in data set [1], the EC50 was 12 nM.

With `CC1(C)CC[C@@H]2c3cc(OCCn4nc5ccccn5c4=O)c(C4CC4)cc3-c3cc(=O)c(C(=O)O)cn3N21` [Example 96, (R)-11-cyclopropyl-3,3-dimethyl-8-oxo-12-(2-(3-oxo-[1,2,4]triazolo[4,3-a]pyridin-2(3H)-yl)ethoxy)-2,3,8,13b-tetrahydro-1H-pyrido[2,1-a]pyrrolo[1,2-c]phthalazine-7-carboxylic acid], in the data set “MT-4 cytotoxicity assay” (setting [2]), the half-maximal cytotoxic concentration (CC50) at 5 days is greater than 10000 nM. In addition, the EC50 in data set [1] came to 0.17 nM.

Turning to `COCCCOc1cc2c(cc1Cl)-c1cc(=O)c(C(=O)O)cn1N1C2CCC1(C)C` (stereo not shown) [Example 4, 11-chloro-12-(3-methoxypropoxy)-3,3-dimethyl-8-oxo-2,3,8,13b-tetrahydro-1H-pyrido[2,1-a]pyrrolo[1,2-c]phthalazine-7-carboxylic acid], in “MT-4 cytotoxicity assay” (setting [2]), the 50% cytotoxic concentration (CC50) at 5 days is greater than 10000 nM. The 50% effective concentration (EC50) in data set [1] was 3.9 nM.
